We go through seven compounds from patent publication US5550212A, “Analogues of hGH-RH(1-29)NH2 having antagonistic activity” (The Administrators of the Tulane Educational Fund, priority 1993, dated 1996).

The target in this experiment is T1, rat pituitary GH-RH receptors (Rattus norvegicus, UniProt Q02644).
T1 construct: from tissue; host or cells: rat anterior pituitary (male Sprague-Dawley), crude membranes
T1 sequence (Q02644 23-464): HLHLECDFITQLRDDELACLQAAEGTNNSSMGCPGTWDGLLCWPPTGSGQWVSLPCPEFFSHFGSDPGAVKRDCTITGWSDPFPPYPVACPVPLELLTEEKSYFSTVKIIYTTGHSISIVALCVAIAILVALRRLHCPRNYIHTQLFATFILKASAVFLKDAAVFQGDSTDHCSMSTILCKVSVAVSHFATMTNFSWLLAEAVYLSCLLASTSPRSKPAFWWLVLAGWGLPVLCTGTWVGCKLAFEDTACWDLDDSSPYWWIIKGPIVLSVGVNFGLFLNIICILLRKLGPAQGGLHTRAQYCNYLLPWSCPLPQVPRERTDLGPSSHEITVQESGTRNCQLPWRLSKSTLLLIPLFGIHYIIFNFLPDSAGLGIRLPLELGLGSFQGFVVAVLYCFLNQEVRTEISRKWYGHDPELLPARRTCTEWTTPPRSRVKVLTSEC
Kind of experiment: GH-RH binding assay, competitive binding on rat anterior pituitary membrane homogenates. Conditions: competition with labelled [His1,Nle27]hGH-RH(1-32)NH2. On the procedure:
GH-RH Binding Assay. A sensitive radioreceptor binding assay was developed to determine the binding characteristics of the antagonists of GH-RH (G. Halmos, A. V. Schally et al., Receptor 3, 87-97, 1993), hereby incorporated by reference. The assay is based on binding of labelled [His^1,Nle^27 ]hGH-RH(1-32)NH2 to rat anterior pituitary membrane homogenates. Iodinated derivatives of [His^1,Nle^27 ]hGH-RH(1-32)NH2 are prepared by the chloramine-T method (F. C. Greenwood et al., Biochemistry 89:114-123, 1963), hereby incorporated by reference. Pituitaries from male Sprague-Dawley rats (250-300 g) are used to prepare crude membranes. For saturation binding analyses, membrane homogenates are incubated with at least 6 concentrations of [His^1,^25 I-Tyr^10,Nle^27 ]hGH-RH(1-32)NH2, ranging from 0.005 to 0.35 nM in the presence or absence of excess unlabelled peptide (1 μM). The pellet is counted for radioactivity in a y-counter. The affinities of the antagonist peptides tested to rat pituitary GH-RH receptors are determined in competitive binding experiments. The final binding affinities are estimated by Ki (dissociation constant of the inhibitor-receptor complex) and are determined by the Ligand PC computer program of Munson and Rodbard as modified by McPherson. Relative affinities compared to [Ac-Tyr^1,D-Arg^2 ]hGH-RH(1-29)NH2, the Standard antagonist, are calculated as the ratio of Ki of the tested GH-RH antagonist to the Ki of the Standard antagonist.

What is called Ki is a measure of affinity in units of concentration, obtained from inhibition or displacement. A lower Ki goes with tighter binding.

Starred links: 1 amine or outer side, 2 acyl side, 3 side chain; linkers in the order of their positions; H or OH if unused. Non-standard residues stand in square brackets, D forms with d. Residues, ends and D or L forms follow the SMILES beside them. *: point of attachment. Acetyl(1-naphthyl) = O=C(Cc1cccc2ccccc12)*; Tpi = O=C(O)[C@@H]1Cc2c([nH]c3ccccc23)CN1; Phe(4-Cl) = N[C@@H](Cc1ccc(Cl)cc1)C(=O)O; Glutaryl = O=C(CCCC(=O)[*:2])[*:1]; Isobutyryl = CC(C)C(=O)*; Nle = CCCC[C@H](N)C(=O)O; Abu = CC[C@H](N)C(=O)O; Aib = CC(C)(N)C(=O)O; X2 = O=C(CI)*

Take `CCCC[C@H](NC(=O)[C@@H](NC(=O)[C@H](CC(=O)O)NC(=O)[C@H](CCC(N)=O)NC(=O)[C@H](CC(C)C)NC(=O)[C@H](CC(C)C)NC(=O)[C@H](CCCCN)NC(=O)[C@H](CCCNC(=N)N)NC(=O)[C@H](C)NC(=O)[C@H](CO)NC(=O)[C@H](CC(C)C)NC(=O)[C@H](CCC(N)=O)NC(=O)[C@H](CC)NC(=O)[C@H](CC(C)C)NC(=O)[C@@H](NC(=O)[C@H](CCCCN)NC(=O)[C@H](CCCNC(=N)N)NC(=O)[C@H](Cc1ccc(O)cc1)NC(=O)[C@H](CO)NC(=O)[C@H](CC(N)=O)NC(=O)[C@@H](NC(=O)[C@H](Cc1ccc(Cl)cc1)NC(=O)[C@@H](NC(=O)[C@H](C)NC(=O)[C@H](CC(=O)O)NC(=O)[C@@H](CCCNC(=N)N)NC(=O)[C@H](Cc1ccc(O)cc1)NC(=O)Cc1cccc2ccccc12)[C@@H](C)CC)[C@@H](C)O)C(C)C)[C@@H](C)CC)C(=O)N[C@@H](CO)C(=O)N[C@@H](CCCNC(=N)N)C(N)=O` [Peptide 1, [Nac^0,D-Arg^2, Phe(pCl)^6,Abu^15, Nle^27]hGH-RH(1-29)NH2] ({Acetyl(1-naphthyl)}-Y[dR]DAI[Phe(4-Cl)]TNSYRKVL[Abu]QLSARKLLQDI[Nle]SR-NH2): the inhibition constant (Ki) amounted to 0.04 ± 0.01 nM.
The value for `CCCC[C@H](NC(=O)[C@@H](NC(=O)[C@H](CC(=O)O)NC(=O)[C@H](CCC(N)=O)NC(=O)[C@H](CC(C)C)NC(=O)[C@H](CC(C)C)NC(=O)[C@H](CCCCN)NC(=O)[C@H](CCCNC(=N)N)NC(=O)[C@H](C)NC(=O)[C@H](CO)NC(=O)[C@H](CC(C)C)NC(=O)[C@H](CCC(N)=O)NC(=O)[C@H](CC)NC(=O)[C@H](CC(C)C)NC(=O)[C@@H](NC(=O)[C@H](CCCCN)NC(=O)[C@H](CCCNC(=N)N)NC(=O)[C@H](Cc1ccc(O)cc1)NC(=O)[C@H](CO)NC(=O)[C@H](CC(N)=O)NC(=O)[C@@H](NC(=O)[C@H](Cc1ccc(Cl)cc1)NC(=O)[C@@H](NC(=O)[C@H](C)NC(=O)[C@H](CC(=O)O)NC(=O)[C@@H](CCCNC(=N)N)NC(=O)[C@H](Cc1c[nH]cn1)NC(=O)Cc1cccc2ccccc12)[C@@H](C)CC)[C@@H](C)O)C(C)C)[C@@H](C)CC)C(=O)N[C@@H](CO)C(=O)N[C@@H](CCCNC(=N)N)C(N)=O` [Peptide 5, [Nac^0 -His^1,D-Arg^2,Phe(pCl)^6,Abu^15, Nle^27]hGH-RH(1-29)NH2] ({Acetyl(1-naphthyl)}-H[dR]DAI[Phe(4-Cl)]TNSYRKVL[Abu]QLSARKLLQDI[Nle]SR-NH2) was 0.05 ± 0.01 nM; that for `CCCC[C@H](NC(=O)[C@@H](NC(=O)[C@H](CC(=O)O)NC(=O)[C@H](CCC(N)=O)NC(=O)[C@H](CC(C)C)NC(=O)[C@H](CC(C)C)NC(=O)[C@H](CCCCN)NC(=O)[C@H](CCCNC(=N)N)NC(=O)[C@H](C)NC(=O)[C@H](CO)NC(=O)[C@H](CC(C)C)NC(=O)[C@H](CCC(N)=O)NC(=O)[C@H](CC)NC(=O)[C@H](CC(C)C)NC(=O)[C@@H](NC(=O)[C@H](CCCCN)NC(=O)[C@H](CCCNC(=N)N)NC(=O)[C@H](Cc1ccc(O)cc1)NC(=O)[C@H](CO)NC(=O)[C@H](CC(N)=O)NC(=O)[C@@H](NC(=O)[C@H](Cc1ccc(Cl)cc1)NC(=O)[C@@H](NC(=O)[C@H](C)NC(=O)[C@H](CC(=O)O)NC(=O)[C@@H](CCCNC(=N)N)NC(=O)[C@H](CCC(=O)O)NC(=O)C(C)C)[C@@H](C)CC)[C@@H](C)O)C(C)C)[C@@H](C)CC)C(=O)N[C@@H](CO)C(=O)N[C@@H](CCCNC(=N)N)C(N)=O` [Peptide 7] (Isobutyryl-E[dR]DAI[Phe(4-Cl)]TNSYRKVL[Abu]QLSARKLLQDI[Nle]SR-NH2) was 1.35 ± 0.02 nM; that for `CCCC[C@H](NC(=O)[C@@H](NC(=O)[C@H](CC(=O)O)NC(=O)[C@H](CCC(N)=O)NC(=O)[C@H](CC(C)C)NC(=O)[C@H](CC(C)C)NC(=O)[C@H](CCCCN)NC(=O)[C@H](CCCNC(=N)N)NC(=O)[C@H](C)NC(=O)[C@H](CO)NC(=O)[C@H](CC(C)C)NC(=O)[C@H](CCC(N)=O)NC(=O)[C@H](CC)NC(=O)[C@H](CC(C)C)NC(=O)[C@@H](NC(=O)[C@H](CCCCN)NC(=O)[C@H](CCCNC(=N)N)NC(=O)[C@H](Cc1ccc(O)cc1)NC(=O)[C@H](CO)NC(=O)[C@H](CC(N)=O)NC(=O)[C@@H](NC(=O)[C@H](Cc1ccc(Cl)cc1)NC(=O)[C@@H](NC(=O)[C@H](C)NC(=O)[C@H](CC(=O)O)NC(=O)[C@@H](CCCNC(=N)N)NC(=O)[C@H](CCC(=O)O)NC(=O)CI)[C@@H](C)CC)[C@@H](C)O)C(C)C)[C@@H](C)CC)C(=O)N[C@@H](CO)C(=O)N[C@@H](CCCNC(=N)N)C(N)=O` [Peptide 8] (X2-E[dR]DAI[Phe(4-Cl)]TNSYRKVL[Abu]QLSARKLLQDI[Nle]SR-NH2) was 0.91 ± 0.01 nM.
As to `CCCC[C@H](NC(=O)[C@@H](NC(=O)[C@H](CC(=O)O)NC(=O)[C@H](CCC(N)=O)NC(=O)[C@H](CC(C)C)NC(=O)[C@H](CC(C)C)NC(=O)[C@H](CCCCN)NC(=O)[C@H](CCCNC(=N)N)NC(=O)[C@H](C)NC(=O)[C@H](CO)NC(=O)[C@H](CC(C)C)NC(=O)[C@H](CCC(N)=O)NC(=O)[C@H](CC)NC(=O)[C@H](CC(C)C)NC(=O)[C@@H](NC(=O)[C@H](CCCCN)NC(=O)[C@H](CCCNC(=N)N)NC(=O)[C@H](Cc1ccc(O)cc1)NC(=O)[C@H](CO)NC(=O)[C@H](CC(N)=O)NC(=O)[C@@H](NC(=O)[C@H](Cc1ccc(Cl)cc1)NC(=O)[C@@H](NC(=O)[C@H](C)NC(=O)[C@H](CC(=O)O)NC(=O)[C@@H](CCCNC(=N)N)NC(=O)[C@H](CCC(=O)O)NC(=O)Cc1cccc2ccccc12)[C@@H](C)CC)[C@@H](C)O)C(C)C)[C@@H](C)CC)C(=O)N[C@@H](CO)C(=O)N[C@@H](CCCNC(=N)N)C(N)=O` [Peptide 9] ({Acetyl(1-naphthyl)}-E[dR]DAI[Phe(4-Cl)]TNSYRKVL[Abu]QLSARKLLQDI[Nle]SR-NH2), the inhibition constant Ki amounted to 0.87 ± 0.1 nM.
Consider `CCCC[C@H](NC(=O)[C@@H](NC(=O)[C@H](CC(=O)O)NC(=O)[C@H](CCC(N)=O)NC(=O)[C@H](CC(C)C)NC(=O)[C@H](CC(C)C)NC(=O)[C@H](CCCCN)NC(=O)[C@H](CCCNC(=N)N)NC(=O)[C@H](C)NC(=O)[C@H](CO)NC(=O)[C@H](CC(C)C)NC(=O)[C@H](CCC(N)=O)NC(=O)[C@H](CC)NC(=O)[C@H](CC(C)C)NC(=O)[C@@H](NC(=O)[C@H](CCCCN)NC(=O)[C@H](CCCNC(=N)N)NC(=O)[C@H](Cc1ccc(O)cc1)NC(=O)[C@H](CO)NC(=O)[C@H](CC(N)=O)NC(=O)[C@@H](NC(=O)[C@@H]1Cc2c([nH]c3ccccc23)CN1C(=O)[C@@H](NC(=O)[C@H](C)NC(=O)[C@H](CC(=O)O)NC(=O)[C@@H](CCCNC(=N)N)NC(=O)CCCC(=O)O)[C@@H](C)CC)[C@@H](C)O)C(C)C)[C@@H](C)CC)C(=O)N[C@@H](CO)C(=O)N[C@@H](CCCNC(=N)N)C(N)=O` [Peptide 12, [Glt^1,D-Arg^2,Tpi^6,Abu^15,Nle^27]hGH-RH(1-29)NH2] (Glutaryl-[dR]DAI[Tpi]TNSYRKVL[Abu]QLSARKLLQDI[Nle]SR-NH2), for which the affinity corresponds to a Ki of 0.3 ± 0.15 nM.
Compound `CCCC[C@H](NC(=O)[C@@H](NC(=O)[C@H](CC(=O)O)NC(=O)[C@H](CCC(N)=O)NC(=O)[C@H](CC(C)C)NC(=O)[C@H](CC(C)C)NC(=O)[C@H](CCCCN)NC(=O)[C@H](CCCNC(=N)N)NC(=O)[C@H](C)NC(=O)[C@H](CO)NC(=O)[C@H](CC(C)C)NC(=O)[C@H](CCC(N)=O)NC(=O)[C@H](CC)NC(=O)[C@H](CC(C)C)NC(=O)[C@@H](NC(=O)[C@H](CCCCN)NC(=O)[C@H](CCCNC(=N)N)NC(=O)[C@H](Cc1ccc(O)cc1)NC(=O)[C@H](CO)NC(=O)C(C)(C)NC(=O)[C@@H](NC(=O)[C@H](Cc1ccccc1)NC(=O)[C@@H](NC(=O)[C@H](C)NC(=O)[C@H](CC(=O)O)NC(=O)[C@@H](CCCNC(=N)N)NC(=O)[C@H](Cc1ccc(O)cc1)NC(=O)C(C)C)[C@@H](C)CC)[C@@H](C)O)C(C)C)[C@@H](C)CC)C(=O)N[C@@H](CO)C(=O)N[C@@H](CCCNC(=N)N)C(N)=O` [Peptide 13, [Ibu^0,D-Arg^2,Aib^8,Abu^15,Nle^27]hGH-RH(1-29)NH2] (Isobutyryl-Y[dR]DAIFT[Aib]SYRKVL[Abu]QLSARKLLQDI[Nle]SR-NH2) showed a Ki of 0.78 ± 0.06 nM.
